Reference: ChEMBL document CHEMBL3244218, “beta-Adrenergic blocking agents with acute antihypertensive activity” (1979)

Tests used:
Canis familiaris [1] = species: Canis familiaris; experiment: Peripheral vasodilating activity in mongrel dog assessed as increase in iliac blood flow at 1600 ug, ia; assay type: functional, Canis lupus familiaris, Artery
Canis familiaris [2] = experiment: In-vivo beta-adrenergic blocking activity in iv dosed mongrel dog assessed as blockade of isoproterenol-induced tachycardia by measuring heart rate; assay type: functional; details: Canis lupus familiaris
Rattus norvegicus [3] = experiment: Antihypertensive activity in spontaneously hypertensive rat assessed as maximum fall in mean arterial pressure at 1.25 mg/kg, po; assay type: functional, Artery
Canis familiaris [4] = experiment: Peripheral vasodilating activity in mongrel dog assessed as increase in iliac blood flow at 1600 ug, ia in presence of isoproterenol and 2000 ug/kg timolol; assay type: functional, Canis lupus familiaris, Artery
Rattus norvegicus [5] = experiment: Antihypertensive activity in spontaneously hypertensive rat assessed as maximum fall in mean arterial pressure at 20 mg/kg, po; assay type: functional, Artery
Canis familiaris [6] = experiment: In-vivo beta-adrenergic blocking activity in iv dosed mongrel dog assessed as blockade of isoproterenol-induced hypotension by measuring mean arterial pressure; assay type: functional; details: Canis lupus familiaris, Artery
Rattus norvegicus [7] = experiment: Antihypertensive activity in spontaneously hypertensive rat assessed as maximum fall in mean arterial pressure at 5 mg/kg, po; assay type: functional, Artery
Canis familiaris [8] = experiment: In-vivo beta-adrenergic blocking activity in iv dosed mongrel dog assessed as blockade of isoproterenol-induced bronchodilation by measuring pulmonary pressure; assay type: functional; details: Canis lupus familiaris
Rattus norvegicus [9] = experiment: Antihypertensive activity in spontaneously hypertensive rat assessed as maximum fall in mean arterial pressure at 0.312 mg/kg, po; assay type: functional, Artery
Canis familiaris [10] = experiment: Peripheral vasodilating activity in mongrel dog assessed as increase in iliac blood flow at 1600 ug, ia in presence of isoproterenol and 1000 ug/kg timolol; assay type: functional, Canis lupus familiaris, Artery
Canis familiaris [11] = species: Canis familiaris; experiment: Peripheral vasodilating activity in mongrel dog assessed as increase in iliac blood flow at 8 ug, ia; assay type: functional, Canis lupus familiaris, Artery
Canis familiaris [12] = experiment: Peripheral vasodilating activity in mongrel dog assessed as increase in iliac blood flow at 16 ug, ia in presence of isoproterenol and 2000 ug/kg timolol; assay type: functional, Canis lupus familiaris, Artery
Canis familiaris [13] = species: Canis familiaris; experiment: Peripheral vasodilating activity in mongrel dog assessed as increase in iliac blood flow at 16 ug, ia; assay type: functional, Canis lupus familiaris, Artery
Canis familiaris [14] = experiment: Peripheral vasodilating activity in mongrel dog assessed as increase in iliac blood flow at 8 ug, ia in presence of isoproterenol and 2000 ug/kg timolol; assay type: functional, Canis lupus familiaris, Artery
Canis familiaris [15] = experiment: Peripheral vasodilating activity in mongrel dog assessed as increase in iliac blood flow at 32 ug, ia in presence of isoproterenol and 2000 ug/kg timolol; assay type: functional, Canis lupus familiaris, Artery
Canis familiaris [16] = species: Canis familiaris; experiment: Peripheral vasodilating activity in mongrel dog assessed as increase in iliac blood flow at 32 ug, ia; assay type: functional, Canis lupus familiaris, Artery
Canis familiaris [17] = experiment: Peripheral vasodilating activity in mongrel dog assessed as increase in iliac blood flow at 1600 ug, ia in presence of isoproterenol and 500 ug/kg timolol; assay type: functional, Canis lupus familiaris, Artery
Canis familiaris [18] = species: Canis familiaris; experiment: Peripheral vasodilating activity in mongrel dog assessed as increase in iliac blood flow at 250 ug, ia; assay type: functional, Canis lupus familiaris, Artery

| Compound | Activity (Canis familiaris [1]) [mL/min] | ED50 (Canis familiaris [2]) [mg/kg] | Activity (Rattus norvegicus [3]) [mmHg] | Activity (Canis familiaris [4]) [mL/min] | Activity (Rattus norvegicus [5]) [mmHg] | ED50 (Canis familiaris [6]) [mg/kg] | Activity (Rattus norvegicus [7]) [mmHg] | ED50 (Canis familiaris [8]) [mg/kg] | Activity (Rattus norvegicus [9]) [mmHg] | Activity (Canis familiaris [10]) [mL/min] | Activity (Canis familiaris [11]) [mL/min] | Activity (Canis familiaris [12]) [mL/min] | Activity (Canis familiaris [13]) [mL/min] | Activity (Canis familiaris [14]) [mL/min] | Activity (Canis familiaris [15]) [mL/min] | Activity (Canis familiaris [16]) [mL/min] | Activity (Canis familiaris [17]) [mL/min] | Activity (Canis familiaris [18]) [mL/min] |
| --- | --- | --- | --- | --- | --- | --- | --- | --- | --- | --- | --- | --- | --- | --- | --- | --- | --- | --- |
| CC(C)(C)NC[C@H](O)COc1ccc(-c2ncc[nH]2)cc1 | 30 | 0.067 | 19 | 0 | 41 | > 1 |  |  |  |  |  |  |  |  |  |  |  |  |
| COc1ccc(-c2cnc(-c3ccc(OC[C@@H](O)CNC(C)(C)C)cc3)[nH]2)cc1.O=C(O)/C=C\C(=O)O | 26 | 0.027 | 10 | 16 | 39 | 0.525 | 28 | 0.48 |  |  |  |  |  |  |  |  |  |  |
| Cc1cnc(-c2ccc(OC[C@@H](O)CNC(C)(C)C)cc2)[nH]1.O=C(O)/C=C\C(=O)O | 59 | 0.03 | 24 | 32 | 41 | 1 | 19 | 0.277 |  |  |  |  |  |  |  |  |  |  |
| CC(C)(C)NC[C@H](O)COc1ccc(-c2ncc(-c3cccs3)[nH]2)cc1.O=C(O)/C=C\C(=O)O | 23 | 0.014 | 20 | 15 |  | 0.234 | 33 | 0.433 | 9 |  |  |  |  |  |  |  |  |  |
| Cc1cc(OC[C@@H](O)CNC(C)(C)C)ccc1-c1ncc(C(F)(F)F)[nH]1 | 36 | 0.0157 | 36 |  |  | 0.0927 | 51 | 0.0364 |  | 39 |  |  |  |  |  |  |  |  |
| CC(C)(C)NCC(O)COc1ccc(-c2nc(C(F)(F)F)c[nH]2)cc1 (racemic) | 79 | 0.0076 | 36 | 15 |  | 0.042 | 49 | 0.071 | 21 |  | 52 | 17 | 58 | 10 | 15 | 63 |  |  |
| CC(C)(C)NCC(O)COc1ccc(-c2ncc[nH]2)cc1 (racemic) | 36 | 0.098 |  |  | 18 | > 1 |  | > 1 |  |  |  |  |  |  |  |  | 31 |  |
| CC(C)(C)NCC(O)COc1ccc(-c2ncc(C(F)(F)F)[nH]2)c(Cl)c1 (racemic) | 2 | 0.027 | 28 |  |  | 0.552 | 36 | 0.054 |  |  |  |  |  |  |  |  |  | -2 |
| CC(C)(C)NCC(O)COc1ccc(-c2ncc(-c3ccccc3)[nH]2)cc1 (racemic) | 46 | 0.035 | 20 | 42 | 54 | 0.083 | 30 | 0.095 |  |  |  |  |  |  |  |  |  |  |
| Cc1cc(OCC(O)CNC(C)(C)C)cc(C)c1-c1ncc(C(F)(F)F)[nH]1 (racemic) | 5 | 0.091 | 31 |  | 30 | > 1 | 20 | 0.163 |  | 10 |  |  |  |  |  |  |  |  |
| COc1ccc(-c2cnc(-c3ccc(OCC(O)CNC(C)(C)C)cc3)[nH]2)cc1 (racemic) | 25 | 0.04 | 21 | 20 |  | > 1 | 29 |  | 12 |  |  |  |  |  |  |  |  |  |
| CC(C)(C)NCC(O)COc1ccc(-c2ncc(-c3ccc(Cl)cc3)[nH]2)cc1 (racemic) |  | 0.0562 | 32 |  | 32 | 0.137 | 35 | 0.0827 |  |  |  |  |  |  |  |  |  |  |
| CC(C)(C)NCC(O)COc1ccc(-c2ncc(-c3ccc(F)cc3)[nH]2)cc1 (racemic) | 42 | 0.019 |  | 32 | 13 | 0.139 |  |  |  |  |  |  |  |  |  |  |  |  |
| CC(C)(C)NCC(O)COc1ccc(-c2ncc(-c3ccc(Cl)c(Cl)c3)[nH]2)cc1 (racemic) | 56 | 0.123 | 36 | 15 | 49 | 0.117 | 35 | 0.097 |  |  |  |  |  |  |  |  |  |  |
| CC(C)(C)NCC(O)COc1ccc(-c2ncc(-c3c(F)c(F)c(F)c(F)c3F)[nH]2)cc1 (racemic) | 56 | 0.082 | 21 | 48 | 40 | 0.3 | 19 |  |  |  |  |  |  |  |  |  |  |  |
| CC(C)(C)NCC(O)COc1ccc(-c2ncc(-c3ccco3)[nH]2)cc1 (racemic) | 80 | 0.015 |  | 40 | 35 | 0.3 |  |  |  |  |  |  |  |  |  |  |  |  |

| Compound | Activity (Canis familiaris [1]) [mL/min] | ED50 (Canis familiaris [2]) [mg/kg] | Activity (Rattus norvegicus [3]) [mmHg] | Activity (Canis familiaris [4]) [mL/min] | Activity (Rattus norvegicus [5]) [mmHg] | ED50 (Canis familiaris [6]) [mg/kg] | Activity (Rattus norvegicus [7]) [mmHg] | ED50 (Canis familiaris [8]) [mg/kg] | Activity (Rattus norvegicus [9]) [mmHg] | Activity (Canis familiaris [10]) [mL/min] | Activity (Canis familiaris [11]) [mL/min] | Activity (Canis familiaris [12]) [mL/min] | Activity (Canis familiaris [13]) [mL/min] | Activity (Canis familiaris [14]) [mL/min] | Activity (Canis familiaris [15]) [mL/min] | Activity (Canis familiaris [16]) [mL/min] | Activity (Canis familiaris [17]) [mL/min] | Activity (Canis familiaris [18]) [mL/min] |
| --- | --- | --- | --- | --- | --- | --- | --- | --- | --- | --- | --- | --- | --- | --- | --- | --- | --- | --- |
| CC(C)(C)NCC(O)COc1ccc(-c2ncc(-c3ccccn3)[nH]2)cc1 (racemic) |  |  | 6 |  | 40 |  | 27 |  |  |  |  |  |  |  |  |  |  |  |
| CC(C)(C)NCC(O)COc1ccc(-c2ncc(-c3cccnc3)[nH]2)cc1 (racemic) | 64 | 0.054 |  | 40 | 13 | > 1 | 28 |  |  |  |  |  |  |  |  |  |  |  |
| COC(=O)c1cnc(-c2ccc(OCC(O)CNC(C)(C)C)cc2)[nH]1 (racemic) | 80 | 0.04 |  | 29 | 36 | > 1 | 17 |  |  |  |  |  |  |  |  |  |  |  |
| CC(C)(C)NCC(O)COc1ccc(-c2ncc(C(N)=O)[nH]2)cc1 (racemic) |  | 0.262 |  |  | 14 | > 1 |  | > 1 |  |  |  |  |  |  |  |  |  |  |
| CC(C)(C)NCC(O)COc1cc(Cl)c(-c2ncc(C(F)(F)F)[nH]2)c(Cl)c1 (racemic) |  |  | 16 |  |  |  | 30 |  |  |  |  |  |  |  |  |  |  |  |
| CC(C)(C)NCC(O)COc1ccc(-c2ncc(C(F)(F)F)[nH]2)c(Cl)c1Cl (racemic) |  |  |  |  | 49 |  | 16 |  |  |  |  |  |  |  |  |  |  |  |
| CC(C)(C)NCC(O)COc1ccc(-c2ncc(C(F)(F)F)[nH]2)cc1Cl (racemic) | 17 | 0.016 |  |  | 6 | 0.017 | 5 | 0.015 |  |  |  |  |  |  |  |  |  | 5 |
| Cc1cc(OCC(O)CNC(C)(C)C)ccc1-c1ncc(C(F)(F)F)[nH]1 (racemic) | 27 | 0.0227 | 32 |  | 44 | 0.361 | 43 | 0.0298 |  |  |  |  |  |  |  |  |  | 11 |
| Cc1c(OCC(O)CNC(C)(C)C)ccc(-c2ncc(C(F)(F)F)[nH]2)c1C (racemic) | 23 | 0.071 | 27 |  | 30 | 0.582 | 24 | 0.055 |  | 19 |  |  |  |  |  |  |  |  |
| Cc1cc(-c2ncc(C(F)(F)F)[nH]2)ccc1OCC(O)CNC(C)(C)C (racemic) | 52 | 0.011 | 23 |  |  | 0.022 | 36 |  |  | 20 |  |  |  |  |  |  |  | 6 |
| CC(C)(C)NCC(O)COc1ccc(-c2ncc(C(F)(F)F)[nH]2)c2c1CCCC2 (racemic) | -15 | 0.228 |  |  | 22 | 0.167 |  | 0.1 |  | -10 |  |  |  |  |  |  |  |  |
| CC(C)(C)NCC(O)COc1ccc(-c2ncc(C(F)(F)F)[nH]2)c2ccccc12 (racemic) | 35 | 0.186 |  |  | 40 | > 1 | 21 |  |  | 40 |  |  |  |  |  |  |  |  |
| CC(C)(C)NCC(O)COc1ccc(-c2nc(-c3cccs3)c[nH]2)cc1 (racemic) | 28 | 0.016 | 36 | 10 | 58 | 0.635 | 35 |  | 12 |  |  |  |  |  |  |  |  |  |
| Cc1c[nH]c(-c2ccc(OCC(O)CNC(C)(C)C)cc2)n1 (racemic) | 101 | 0.106 |  | 62 | 27 | > 1 | 6 |  |  |  |  |  |  |  |  |  | 75 |  |
| NNc1nncc2ccccc12 [HYDRALAZINE] | 66 |  |  |  |  |  |  |  |  |  |  |  |  |  |  |  |  |  |
| CC(=O)Nc1ccc(OCC(O)CNC(C)C)cc1 (configuration not stated) [PRACTOLOL] |  | 0.115 |  |  |  | 1 |  | 1.08 |  |  |  |  |  |  |  |  |  |  |
